In patent publication US12714657B2, “Magnolia extract containing compositions” (MARY KAY INC., priority 2007, dated 2026):

How the values were obtained:
Human melanocytes = assay: Melanin production assay in melanocytes; format: cell-based; details: 6 days
Experimental: Materials and Methods: Human melanocytes from a moderately pigmented donor were purchased from Cascade Biologics (Portland, Oregon). Human dermal fibroblasts were purchased from Cambrex (Rockland, ME). In order to determine the optimal concentrations of the test materials for the whitening experiment, these materials were first examined in a proliferation assay with human dermal fibroblasts. The highest non-interfering concentration was determined for each test material and further 5-fold dilutions were made for use in melanocytes cultures. The following assay was used to the effects of the materials on melanin production. Melanocytes were seeded in the fully-supplemented 254 medium (Cascade) in 96 well plates and test materials were added 24 h later. Cells were grown for 6 days with one growth medium change. At the end of the experiment, cells were lysed with the Cellytic Mammalian Cell Lysis/Extraction Reagent (Sigma, St. Louis, MO) and melanin was solubilized in 2N NaOH. Melanin content was determined spectrophotometrically at 405 nm and standardized to total protein content from the same cultures, using Bradford reagent (Sigma, St. Louis, MO). Kojic acid was used as positive control. Cell cultures were monitored on a Nikon Eclipse inverted microscope.

Mushroom Tyrosinase = assay: Tyrosinase activity, modified Pomerantz method; format: biochemical; details: H20 = 100.0
Experimental: Tyrosinase activity was measured by the modified Pomerantz method (Biophys Res Commun, 1964). Mushroom Tyrosinase (Sigma #3212816630) stock enzyme was 5 U/well (25 U/ml). The substrate (I-DOPA, Fisher Scientific, Pittsburgh, PA) stock solution was 20 mM. Working solution was prepared in PBS for each assay. The reaction mixture consisted of 50 μl 20 mM I-DOPA and 10 μl undiluted test sample. Reaction was initiated by adding tyrosinase. Assays were preformed in 96 well flat-bottom microtiter plates (Fisher #0720087) and read at 490 nm after 5, 10, and 20 min.

SMILES | Melanin content (% of water control) (Human melanocytes; Dilution Factor 1/25-1/125, H20 = 100%) | Tyrosinase activity, % of water control (Mushroom Tyrosinase; read at 490 nm after 5 min) | Tyrosinase activity, % of water control (Mushroom Tyrosinase; read at 490 nm after 10 min) | Tyrosinase activity, % of water control (Mushroom Tyrosinase; read at 490 nm after 20 min) | activity at 200 µM (Human melanocytes; Melanocyte, 144 h, 200 μM, H20 = 100%, read-out: Melanin Inhibition in Cells) [%]
O=C1O[C@H]([C@@H](O)CO)C(O)=C1O[C@H]1O[C@H](CO)[C@@H](O)[C@H](O)[C@H]1O [Ascorbyl Glucoside, Ascorbyl glucoside] | 75-65.5% | 33.8 | 30.6 | 30.1 | 
O=c1cc(CO)occ1O [Kojic acid] |  | 39.0 | 35.5 | 33.1 | 83
